Measurements published in ChEMBL document CHEMBL1909046, “DrugMatrix in vitro pharmacology data”.

Tests used:
[1] = DRUGMATRIX: Atrial Natriuretic Factor (ANF) radioligand binding (ligand: [125I] ANF (rat)); type: cell membranes, Cavia porcellus, Dunkin-Hartley, Adrenal gland, Membrane; details: Not Active = under 50% inhibition at 10 µM
B2 bradykinin receptor = target: T1, B2 bradykinin receptor (Homo sapiens, UniProt P30411); type: cell membranes, Membrane; details: chem-1; also: in other assays of this panel Not Active means under 50% inhibition at 10 µM
T1 sequence (P30411 whole entry): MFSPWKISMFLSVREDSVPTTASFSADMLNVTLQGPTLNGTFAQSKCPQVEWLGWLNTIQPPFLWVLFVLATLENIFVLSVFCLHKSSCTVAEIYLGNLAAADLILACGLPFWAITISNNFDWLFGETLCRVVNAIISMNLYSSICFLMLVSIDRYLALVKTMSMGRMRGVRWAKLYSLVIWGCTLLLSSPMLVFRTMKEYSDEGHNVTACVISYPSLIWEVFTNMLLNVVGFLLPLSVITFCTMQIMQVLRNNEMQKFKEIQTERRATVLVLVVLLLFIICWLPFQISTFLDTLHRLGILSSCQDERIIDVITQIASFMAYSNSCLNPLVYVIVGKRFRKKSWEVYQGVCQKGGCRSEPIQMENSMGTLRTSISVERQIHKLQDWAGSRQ

[2] = DRUGMATRIX: Tumor Necrosis Factor (TNF), Non-Selective radioligand binding (ligand: [125I] TNF-alpha); type: cell membranes, Membrane; details: u-937; Not Active = under 50% inhibition at 10 µM
Cannabinoid receptor 1 = Cannabinoid receptor 1 (Homo sapiens, UniProt P21554); type: cell membranes, Chem-1, Membrane; details: chem-1; also: in other assays of this panel Not Active means under 50% inhibition at 10 µM
[3] = target: Delta-type opioid receptor (Homo sapiens, UniProt P41143); type: cell membranes, HEK293, Membrane; details: hek293; also: in other assays of this panel Not Active means under 50% inhibition at 10 µM
[4] = target: T2, Angiotensin-converting enzyme (Oryctolagus cuniculus, UniProt P12822); experiment: biochemical; type: tissue-based, Lung;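 also: enzymatic inhibition of angiotensin-converting enzyme measured with FAPGG as the substrate; in other assays of this panel Not Active means under 50% inhibition at 10 µM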
T2 sequence (P12822 whole entry): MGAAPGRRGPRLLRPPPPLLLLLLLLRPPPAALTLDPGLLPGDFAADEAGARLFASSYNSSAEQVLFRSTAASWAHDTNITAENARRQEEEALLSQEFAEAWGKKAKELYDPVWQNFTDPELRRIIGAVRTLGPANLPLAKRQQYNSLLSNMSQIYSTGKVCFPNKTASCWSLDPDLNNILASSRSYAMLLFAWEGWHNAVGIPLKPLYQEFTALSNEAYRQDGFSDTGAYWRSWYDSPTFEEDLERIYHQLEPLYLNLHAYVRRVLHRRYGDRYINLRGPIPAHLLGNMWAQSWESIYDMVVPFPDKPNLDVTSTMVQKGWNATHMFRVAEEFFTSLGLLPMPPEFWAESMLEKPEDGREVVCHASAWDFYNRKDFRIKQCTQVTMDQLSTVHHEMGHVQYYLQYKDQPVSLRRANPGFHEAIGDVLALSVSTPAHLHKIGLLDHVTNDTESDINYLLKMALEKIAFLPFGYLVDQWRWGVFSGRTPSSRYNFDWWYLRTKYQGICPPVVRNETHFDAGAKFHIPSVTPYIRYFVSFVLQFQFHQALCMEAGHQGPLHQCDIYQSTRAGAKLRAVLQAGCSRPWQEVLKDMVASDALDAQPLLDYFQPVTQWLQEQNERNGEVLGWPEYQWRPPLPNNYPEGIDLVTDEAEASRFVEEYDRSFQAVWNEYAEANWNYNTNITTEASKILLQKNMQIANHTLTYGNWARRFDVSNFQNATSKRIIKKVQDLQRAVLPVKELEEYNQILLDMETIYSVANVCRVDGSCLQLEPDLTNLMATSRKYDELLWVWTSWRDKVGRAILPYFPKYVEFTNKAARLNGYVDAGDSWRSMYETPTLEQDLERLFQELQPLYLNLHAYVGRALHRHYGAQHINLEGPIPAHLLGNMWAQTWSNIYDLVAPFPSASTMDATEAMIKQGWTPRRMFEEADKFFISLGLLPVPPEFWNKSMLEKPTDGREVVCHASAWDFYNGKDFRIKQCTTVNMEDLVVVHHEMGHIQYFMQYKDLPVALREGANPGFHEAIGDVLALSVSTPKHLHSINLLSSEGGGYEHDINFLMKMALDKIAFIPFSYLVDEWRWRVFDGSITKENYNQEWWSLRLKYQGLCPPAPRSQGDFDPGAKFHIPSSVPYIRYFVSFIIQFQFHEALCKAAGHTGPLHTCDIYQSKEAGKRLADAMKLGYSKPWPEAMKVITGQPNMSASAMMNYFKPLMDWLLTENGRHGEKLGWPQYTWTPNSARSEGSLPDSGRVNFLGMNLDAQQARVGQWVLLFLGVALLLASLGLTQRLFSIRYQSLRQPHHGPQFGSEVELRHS

[5] = target: Tyrosine-protein kinase Lck (Homo sapiens, UniProt P06239); experiment: DRUGMATRIX: Protein Tyrosine Kinase, LCK enzyme inhibition (substrate: Poly(Glu:Tyr)); type: cell-based, Insect cells; details: insect cells; Not Active = under 50% inhibition at 10 µM
Adenosine receptor A3 = target: T3, Adenosine receptor A3 (Homo sapiens, UniProt P0DMS8); type: cell membranes, CHO-K1, Membrane; details: for Ki: read-out: Ki
T3 sequence (P0DMS8 whole entry): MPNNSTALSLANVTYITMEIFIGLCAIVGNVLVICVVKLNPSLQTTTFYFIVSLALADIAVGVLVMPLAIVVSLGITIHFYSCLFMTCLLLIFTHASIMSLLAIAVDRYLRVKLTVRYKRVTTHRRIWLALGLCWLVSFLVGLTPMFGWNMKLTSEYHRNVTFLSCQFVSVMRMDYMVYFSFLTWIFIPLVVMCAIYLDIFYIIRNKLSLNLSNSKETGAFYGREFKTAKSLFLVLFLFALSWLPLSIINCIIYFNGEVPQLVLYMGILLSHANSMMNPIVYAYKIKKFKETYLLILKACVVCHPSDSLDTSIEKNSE

Sequence of Cannabinoid receptor 1 (P21554 whole entry): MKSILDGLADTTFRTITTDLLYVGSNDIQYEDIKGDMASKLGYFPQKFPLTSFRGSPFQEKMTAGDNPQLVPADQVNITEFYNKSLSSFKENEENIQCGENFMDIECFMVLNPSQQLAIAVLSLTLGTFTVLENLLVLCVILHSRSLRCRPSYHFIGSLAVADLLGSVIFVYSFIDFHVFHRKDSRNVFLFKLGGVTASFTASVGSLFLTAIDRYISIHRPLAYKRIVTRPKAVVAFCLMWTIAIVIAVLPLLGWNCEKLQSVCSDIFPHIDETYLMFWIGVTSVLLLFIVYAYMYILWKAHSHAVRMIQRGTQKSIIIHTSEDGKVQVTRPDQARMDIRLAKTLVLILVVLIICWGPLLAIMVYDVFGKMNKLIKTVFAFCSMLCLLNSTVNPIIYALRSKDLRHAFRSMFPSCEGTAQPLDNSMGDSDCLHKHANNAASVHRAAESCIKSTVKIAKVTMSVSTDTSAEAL
Sequence of Delta-type opioid receptor (P41143 whole entry): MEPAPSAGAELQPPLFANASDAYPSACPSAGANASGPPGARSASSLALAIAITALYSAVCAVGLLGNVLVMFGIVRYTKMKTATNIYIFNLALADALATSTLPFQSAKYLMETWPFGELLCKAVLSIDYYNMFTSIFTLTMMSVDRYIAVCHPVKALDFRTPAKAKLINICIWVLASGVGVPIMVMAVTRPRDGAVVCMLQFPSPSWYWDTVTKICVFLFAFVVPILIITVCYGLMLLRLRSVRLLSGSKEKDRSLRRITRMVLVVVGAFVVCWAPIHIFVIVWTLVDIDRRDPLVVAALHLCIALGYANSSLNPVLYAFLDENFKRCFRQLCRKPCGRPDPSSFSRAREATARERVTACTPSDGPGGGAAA
Sequence of Tyrosine-protein kinase Lck (P06239 whole entry): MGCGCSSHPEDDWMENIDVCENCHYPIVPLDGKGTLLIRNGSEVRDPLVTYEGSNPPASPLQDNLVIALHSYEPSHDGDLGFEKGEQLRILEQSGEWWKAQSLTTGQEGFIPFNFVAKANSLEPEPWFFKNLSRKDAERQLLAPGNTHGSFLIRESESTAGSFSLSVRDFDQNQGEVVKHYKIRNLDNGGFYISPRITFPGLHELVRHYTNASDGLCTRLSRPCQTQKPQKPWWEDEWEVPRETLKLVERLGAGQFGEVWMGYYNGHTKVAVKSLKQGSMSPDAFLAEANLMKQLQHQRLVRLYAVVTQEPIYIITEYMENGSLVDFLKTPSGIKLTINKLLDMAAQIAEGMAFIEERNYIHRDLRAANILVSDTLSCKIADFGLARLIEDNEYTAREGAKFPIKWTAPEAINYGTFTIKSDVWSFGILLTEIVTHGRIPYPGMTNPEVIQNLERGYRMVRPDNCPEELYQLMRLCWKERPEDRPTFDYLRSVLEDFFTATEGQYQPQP

| SMILES | IC50 [1] | Ki [1] | IC50 (B2 bradykinin receptor) | IC50 [2] | Ki [2] | IC50 (Cannabinoid receptor 1) | IC50 [3] | IC50 [4] | IC50 [5] | IC50 (Adenosine receptor A3; cho-k1) | IC50 (Adenosine receptor A3; read-out: IC50) [nM] | Ki (Adenosine receptor A3) [nM] | Ki [5] |
| --- | --- | --- | --- | --- | --- | --- | --- | --- | --- | --- | --- | --- | --- |
| CC[C@@]1(O)C(=O)OCc2c1cc1n(c2=O)Cc2cc3c(CN(C)C)c(O)ccc3nc2-1 [TOPOTECAN] | Not Active | Not Active | Not Active | Not Active | Not Active | Not Active | Not Active | Not Active | Not Active | Not Active |  |  |  |
| C#C[C@]1(O)CC[C@H]2[C@@H]3[C@H](C)CC4=C(CCC(=O)C4)[C@H]3CC[C@@]21C [TIBOLONE] | Not Active | Not Active | Not Active | Not Active | Not Active | Not Active | Not Active | Not Active | Not Active | Not Active |  |  |  |
| Oc1ccc(/C=C/c2cc(O)cc(O)c2)cc1 [RESVERATROL] | Not Active | Not Active | Not Active | Not Active | Not Active | Not Active | Not Active | Not Active | Not Active | Not Active |  |  |  |
| Cc1ccc(Cl)c(Nc2ccccc2C(=O)O)c1Cl [MECLOFENAMIC ACID] | Not Active | Not Active | Not Active | Not Active | Not Active | Not Active | Not Active | Not Active | Not Active | Not Active |  |  |  |
| Cc1ccnc(NS(=O)(=O)c2ccc(N)cc2)n1 [SULFAMERAZINE] | Not Active | Not Active | Not Active | Not Active | Not Active | Not Active | Not Active | Not Active | Not Active | Not Active |  |  |  |
| CCOc1cc(N)c(Cl)cc1C(=O)NCC1CN(Cc2ccc(F)cc2)CCO1 (centres undefined) [MOSAPRIDE] | Not Active | Not Active | Not Active | Not Active | Not Active | Not Active | Not Active | Not Active | Not Active | Not Active |  |  |  |
| C[C@]12CCC(=O)C[C@@H]1CC[C@@H]1[C@@H]2CC[C@]2(C)[C@@H](O)CC[C@@H]12 [STANOLONE] | Not Active | Not Active | Not Active | Not Active | Not Active | Not Active | Not Active | Not Active | Not Active | Not Active |  |  |  |
| C[N+]1(C)[C@@H]2C[C@@H](OC(=O)[C@H](CO)c3ccccc3)C[C@H]1[C@@H]1O[C@@H]12.[Br-] [METHSCOPOLAMINE BROMIDE] | Not Active | Not Active | Not Active | Not Active | Not Active | Not Active | Not Active | Not Active | Not Active | Not Active |  |  |  |
| OC[C@@H](O)[C@@H](O)[C@H](O)[C@H](O)CO [MANNITOL] | Not Active | Not Active | Not Active | Not Active | Not Active | Not Active | Not Active | Not Active | Not Active | Not Active |  |  |  |
| O=C(O)c1cc(/N=N/c2ccc(S(=O)(=O)Nc3ccccn3)cc2)ccc1O [SULFASALAZINE] | Not Active | Not Active | Not Active | Not Active | Not Active | Not Active | Not Active | Not Active | Not Active | Not Active |  |  |  |
| CC1=C(/C=C/C(C)=C/C=C/C(C)=C/C(=O)O)C(C)(C)CCC1 [TRETINOIN] | Not Active | Not Active | Not Active | Not Active | Not Active | Not Active | Not Active | Not Active | Not Active |  | 5270 | 2980 |  |
| CC[C@H](C)C(=O)O[C@H]1CCC=C2C=C[C@H](C)[C@H](CC[C@@H]3C[C@@H](O)CC(=O)O3)[C@H]21 [MEVASTATIN] | Not Active | Not Active | Not Active | Not Active | Not Active | Not Active | Not Active | Not Active | Not Active | Not Active |  |  |  |
| CCN(CC)C(=S)SSC(=S)N(CC)CC | Not Active | Not Active | Not Active | Not Active | Not Active | Not Active | Not Active | Not Active | Not Active |  | 356 | 201 |  |
| O=[As][O-].[Na+] [SODIUM ARSENITE] | Not Active | Not Active | Not Active | Not Active | Not Active | Not Active | Not Active | Not Active | Not Active | Not Active |  |  |  |
| CCN(CC)N=O [N-NITROSODIETHYLAMINE] | Not Active | Not Active | Not Active | Not Active | Not Active | Not Active | Not Active | Not Active | Not Active | Not Active |  |  |  |
| Nc1nc(N)c2nc(-c3ccccc3)c(N)nc2n1 | Not Active | Not Active | Not Active | Not Active | Not Active | Not Active | Not Active | Not Active | Not Active | Not Active |  |  |  |
| Cc1cc2c(s1)Nc1ccccc1N=C2N1CCN(C)CC1 [OLANZAPINE] |  |  | Not Active |  |  | Not Active | Not Active | Not Active | Not Active | Not Active |  |  |  |
| CNCCCC12CCC(c3ccccc31)c1ccccc12 [MAPROTILINE] |  |  | Not Active |  |  | Not Active | Not Active | Not Active | Not Active | Not Active |  |  |  |
| O=C1CC[C@@]2(O)[C@H]3Cc4ccc(O)c5c4[C@@]2(CCN3CC2CC2)[C@H]1O5 [NALTREXONE] | Not Active | Not Active | Not Active | Not Active | Not Active | Not Active |  | Not Active | Not Active | Not Active |  |  |  |
| CN(C)CCC=C1c2ccccc2COc2ccccc21 [DOXEPIN] |  |  | Not Active |  |  | Not Active | Not Active | Not Active |  | Not Active |  |  | Not Active |
